“Also recorded” adds a separate entry of the source. Like-named read-outs stand apart in the source and are kept apart here. One block for each compound: values may come before it.
Assays:
[1] = SPECT/CT quantification of kidney activity after coinjection of radiotracers with NaCl, Arg-Lys or paraaminohippurate; format: in vivo, Wistar rats; settings: for relative change of kidney uptake with 200 mg/mL paraaminohippurate coinjection in comparison to 0.9% NaCl: imaging, negative = reduction; for effect of paraaminohippurate coinjection on renal uptake (in words): compared with NaCl coinjection
Description: Approximately 10 min later, 50–60 MBq of the ^177Lu-radiolabeled radiopharmaceuticals were injected intravenously in combination with 0.5 mL of 0.9% NaCl, 0.5 mL of paraaminohippurate (200 mg/mL), or 0.5 mL of Arg-Lys (200 mg/mL). At 0.5, 1, 4, 8, and 24 h after injection of the ^177Lu-radiolabeled compounds, SPECT/CT imaging was conducted under isoflurane anesthesia, using Mediso nano-SPECT/CT with a Silver upgrade system (Mediso Kft). VivoQuant version 1.22 software (VivoQuant) was used to determine the volume of interest and to quantify the activity in the kidneys.

[2] = PET quantification of kidney activity of [^68Ga]Ga-PSMA-11 with NaCl or paraaminohippurate; settings: for relative change of kidney uptake with 200 mg/mL paraaminohippurate coinjection in comparison to 0.9% NaCl: negative = reduction; for effect of paraaminohippurate coinjection on renal uptake (in words): compared with NaCl coinjection
Description: PET experiments were conducted by CROmed Translational Research Center Ltd. Healthy adult male Wistar rats (3 animals per group) received an intraperitoneal priming dose of 1 mL of 0.9% NaCl, 1 mL of paraaminohippurate (200 mg/mL), or 1 mL of Arg-Lys (200 mg/mL), followed by 15–30 MBq of [^68Ga]Ga-PSMA-11 once intravenously in combination with 0.9% NaCl, paraaminohippurate, or Arg-Lys. PET examinations were conducted on an upgraded small-animal PET PRIMATE P4 scanner (Concorde Microsystems Inc.) at 5 min and 0.5, 1, 2, and 4 h after injection.

[3] = Tolerability of paraaminohippurate coadministration; format: in vivo; settings: rats, 200 mg/mL solution, intraperitoneal priming plus intravenous coinjection
Description: Experiments were conducted at the Helmholtz-Zentrum Dresden-Rossendorf, Institute of Radiopharmaceutical Cancer Research (approved by Landesdirektion Dresden, number DD24.1-5131/450/16, July 6, 2018). Groups of 5 male Wistar rats each (average body weight, 210 g) were randomized for coinjection of 0.9% NaCl, Arg-Lys solution (200 mg/mL), or paraaminohippurate solution (200 mg/mL). The animals received an intraperitoneal priming dose of 1.0 mL of 0.9% NaCl, 1.0 mL of Arg-Lys, or 1.0 mL of paraaminohippurate solution 10 min before radiotracer injection. The injection solutions for the biodistribution were prepared as mix of [^177Lu]Lu-DOTATOC solution added to 1.5 mL of NaCl, Arg-Lys, or paraaminohippurate solution. The average injected activity ± SD of [^177Lu]Lu-DOTATOC was 4.32 ± 0.51 MBq/kg in 4 animals, whereas 1 rat per group received 149 ± 15 MBq/kg. […]
Approximately 10 min later, 50–60 MBq of the ^177Lu-radiolabeled radiopharmaceuticals were injected intravenously in combination with 0.5 mL of 0.9% NaCl, 0.5 mL of paraaminohippurate (200 mg/mL), or 0.5 mL of Arg-Lys (200 mg/mL). […] VivoQuant version 1.22 software (VivoQuant) was used to determine the volume of interest and to quantify the activity in the kidneys.

[4] = glomerular filtration and proximal tubular secretion; cited from earlier work
[5] = design: method as in PMID 38637142; settings: 12 patients treated with [^177Lu]Lu-DOTATOC; cited from earlier work
[6] = design: species or system Wistar rats; settings: male, Wistar, rat, in vivo
Description: Experiments were conducted at the Helmholtz-Zentrum Dresden-Rossendorf, Institute of Radiopharmaceutical Cancer Research (approved by Landesdirektion Dresden, number DD24.1-5131/450/16, July 6, 2018). Groups of 5 male Wistar rats each (average body weight, 210 g) were randomized for coinjection of 0.9% NaCl, Arg-Lys solution (200 mg/mL), or paraaminohippurate solution (200 mg/mL). The animals received an intraperitoneal priming dose of 1.0 mL of 0.9% NaCl, 1.0 mL of Arg-Lys, or 1.0 mL of paraaminohippurate solution 10 min before radiotracer injection. The injection solutions for the biodistribution were prepared as mix of [^177Lu]Lu-DOTATOC solution added to 1.5 mL of NaCl, Arg-Lys, or paraaminohippurate solution. The average injected activity ± SD of [^177Lu]Lu-DOTATOC was 4.32 ± 0.51 MBq/kg in 4 animals, whereas 1 rat per group received 149 ± 15 MBq/kg.
As for paraaminohippurate, 500 mg paraaminohippurate were administered per rat; […] thereof via intravenous injection; this by itself already results in an initial plasma concentration far exceeding the saturating 800 mg/L stated in ([16]). […]
Animals were killed 5 and 60 min after radiotracer injection; organs and tissues of interest were extracted, and their mass and activity were determined. Activities were counted in an automatic γ-counter, which was cross-calibrated with a dose calibrator by 3 standard samples. […]

[7] = NaCl coinjection, AUC within first hour after injection
[8] = PAH coinjection in comparison to NaCl
[9] = PAH coinjection, AUC within first hour after injection
[10] = independent of the coinjected compound
[11] = paraaminohippurate vs NaCl coinjection
[12] = male, Wistar, rat, in vivo, %ID/g of kidney tissue

Compound: O=C([O-])CC[C@H](NC(=O)N[C@@H](CCCCNC(=O)CCCCCCC(=O)NCCCC[C@@H](NC(=O)[C@@H](Cc1ccccc1)NC(=O)[C@@H](Cc1ccc(O)c(I)c1)NC(=O)CC[C@H](C(=O)[O-])N1CCN(CC(=O)[O-])CCN(CC(=O)[O-])CCN(CC(=O)[O-])CC1)C(=O)[O-])C(=O)[O-])C(=O)[O-].[177Lu+3].[H+].[H+].[H+].[H+].[H+] [[^177Lu]Lu-PSMA-I&T]
relative change of kidney uptake with 200 mg/mL paraaminohippurate coinjection in comparison to 0.9% NaCl ([1]; 0.5 h): −18%
relative change of kidney uptake with 200 mg/mL paraaminohippurate coinjection in comparison to 0.9% NaCl ([1]; 1 h): −22%
relative change of kidney uptake with 200 mg/mL paraaminohippurate coinjection in comparison to 0.9% NaCl ([1]; 4 h): −61%
kidney AUC0–1 h, NaCl [1, 7]: 64.7 %ID/g*h
kidney AUC0–1 h, Difference [1, 8]: −34%
kidney AUC0–1 h, PAH [1, 9]: 42.8 %ID/g*h
effect of paraaminohippurate coinjection on renal uptake (in words) [1]: To a lesser extent, paraaminohippurate-mediated nephroprotection was observed
effect of paraaminohippurate coinjection on renal uptake (in words) ([1]; listed as PSMA-I&T): reduced
time of peak / maximum kidney activity after injection [1, 10]: 0.5 h
reduction of kidney AUC within the first hour after injection [1, 11]: 34%

relative change of kidney uptake with 200 mg/mL paraaminohippurate coinjection in comparison to 0.9% NaCl ([2]; 5 min): −21%
relative change of kidney uptake with 200 mg/mL paraaminohippurate coinjection in comparison to 0.9% NaCl ([2]; 0.5 h): −23%
relative change of kidney uptake with 200 mg/mL paraaminohippurate coinjection in comparison to 0.9% NaCl ([2]; 1 h): −37%
relative change of kidney uptake with 200 mg/mL paraaminohippurate coinjection in comparison to 0.9% NaCl ([2]; 2 h): −5%
relative change of kidney uptake with 200 mg/mL paraaminohippurate coinjection in comparison to 0.9% NaCl ([2]; 4 h): +15%
kidney AUC0–1 h, NaCl [2, 7]: 45.9 %ID/g*h
kidney AUC0–1 h, Difference [2, 8]: −19%
kidney AUC0–1 h, PAH [2, 9]: 37.1 %ID/g*h
effect of paraaminohippurate coinjection on renal uptake (in words) ([2]; listed as PSMA-11): reduced
time of peak kidney activity after injection [2, 10]: 0.5 h
reduction of kidney AUC within the first hour after injection [2, 11]: 19%
Compound: O=C([O-])CN(CCN(CC(=O)[O-])Cc1cc(CCC(=O)NCCCCCC(=O)NCCCC[C@H](NC(=O)N[C@@H](CCC(=O)O)C(=O)O)C(=O)O)ccc1[O-])Cc1cc(CCC(=O)O)ccc1[O-].[68Ga+3].[OH3+] [[^68Ga]Ga-PSMA-11]
effect of paraaminohippurate coinjection on renal uptake (in words) [2]: To a lesser extent, paraaminohippurate-mediated nephroprotection was observed

Compound: Nc1ccc(C(=O)NCC(=O)[O-])cc1.[Na+] [paraaminohippurate, sodium paraaminohippurate]
tolerability / toxicity of coadministration [3]: well tolerated, and no immediate or delayed toxicity was observed
tolerability / toxicity of coadministration ([3]; listed as Paraaminohippurate): well tolerated, with no toxicity observed
fraction filtered by the kidney from the plasma in a single pass-through [4]: more than 90%
kidney uptake of the radiolabeled compound versus Arg-Lys solution [5]: comparable
tolerability in patients [5]: well tolerated

kidney uptake ([6]; 5 min): 2.93 ± 0.42 %ID/g
kidney uptake ([6]; 1 h): 2.16 ± 0.31 %ID/g
%ID/g of kidney tissue ([1]; male, Wistar, rat, in vivo, 0.5 h): 13.3 (8.4) %ID/g
%ID/g of kidney tissue ([1]; male, Wistar, rat, in vivo, 8 h): 2.7 (0.0) %ID/g
tissue uptake at 1 h [1, 12]: 12.2 %ID/g
tissue uptake at 4 h [1, 12]: 2.7 %ID/g
tissue uptake at 24 h [1, 12]: 2.4 %ID/g
kidney AUC0–24 h, Difference ([1]; rat, in vivo): −51%
kidney AUC0–24 h, NaCl ([1]; rat, in vivo): 87.0 %ID/g*h
kidney AUC0–24 h, PAH ([1]; rat, in vivo): 43.0 %ID/g*h
time of peak / maximum kidney activity after injection ([1]; rat, in vivo): 0.5 h
Compound: C[C@@H](O)[C@@H]1NC(=O)[C@H](CCCCN)NC(=O)[C@@H](Cc2c[nH]c3ccccc23)NC(=O)[C@H](Cc2ccc(O)cc2)NC(=O)[C@@H](NC(=O)[C@@H](Cc2ccccc2)NC(=O)CN2CCN(CC(=O)O)CCN(CC(=O)O)CCN(CC(=O)O)CC2)CSSC[C@@H](C(=O)N[C@H](CO)[C@@H](C)O)NC1=O [[^177Lu]Lu-DOTATOC, metal not drawn]

Compound: [^177Lu]Lu-DOTATATE
relative change of kidney uptake with 200 mg/mL paraaminohippurate coinjection in comparison to 0.9% NaCl ([1]; 0.5 h): −80%
relative change of kidney uptake with 200 mg/mL paraaminohippurate coinjection in comparison to 0.9% NaCl ([1]; 1 h): −83%
relative change of kidney uptake with 200 mg/mL paraaminohippurate coinjection in comparison to 0.9% NaCl ([1]; 4 h): −56%
relative change of kidney uptake with 200 mg/mL paraaminohippurate coinjection in comparison to 0.9% NaCl ([1]; 8 h): −49%
relative change of kidney uptake with 200 mg/mL paraaminohippurate coinjection in comparison to 0.9% NaCl ([1]; 24 h): −46%
kidney AUC0–24 h, NaCl ([1]; NaCl coinjection, AUC within 24 h after injection): 113.7 %ID/g*h
kidney AUC0–24 h, Difference [1, 8]: −60%
kidney AUC0–24 h, PAH ([1]; PAH coinjection, AUC within 24 h after injection): 45.4 %ID/g*h
effect of paraaminohippurate coinjection on renal uptake (in words) [1]: significantly lower; also recorded: markedly diminished; also recorded: significantly reduced
time of peak / maximum kidney activity after injection [1, 10]: 0.5 h
